Experimental data as given in ChEMBL document CHEMBL1149441, “Cyclopropylamino acid amide as a pharmacophoric replacement for 2,3-diaminopyridine. Application to the design of novel bradykinin B1 receptor antagonists” (J Med Chem, 2006).

How the values were obtained:
[1] = Half life in iv dosed rat; type: ADME, organism-based; settings: in vivo
B2 bradykinin receptor = target: T1, B2 bradykinin receptor (Homo sapiens, UniProt P30411); test: Binding affinity to bradykinin B2 receptor
T1 sequence (P30411 whole entry): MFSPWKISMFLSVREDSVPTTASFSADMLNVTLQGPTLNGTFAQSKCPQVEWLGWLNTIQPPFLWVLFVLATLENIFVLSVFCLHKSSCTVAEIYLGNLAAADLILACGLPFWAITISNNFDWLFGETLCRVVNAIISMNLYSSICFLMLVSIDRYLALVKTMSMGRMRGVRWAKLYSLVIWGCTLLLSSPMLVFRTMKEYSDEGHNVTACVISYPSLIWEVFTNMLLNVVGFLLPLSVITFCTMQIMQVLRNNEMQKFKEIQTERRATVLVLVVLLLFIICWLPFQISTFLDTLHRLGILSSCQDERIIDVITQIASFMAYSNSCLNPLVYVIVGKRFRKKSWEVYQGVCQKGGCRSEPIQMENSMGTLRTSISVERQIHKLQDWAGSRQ

B1 bradykinin receptor = target: T2, B1 bradykinin receptor (Homo sapiens, UniProt P46663); test: Binding affinity to human bradykinin B1 receptor expressed in CHO cells; type: cell-based
T2 sequence (P46663 whole entry): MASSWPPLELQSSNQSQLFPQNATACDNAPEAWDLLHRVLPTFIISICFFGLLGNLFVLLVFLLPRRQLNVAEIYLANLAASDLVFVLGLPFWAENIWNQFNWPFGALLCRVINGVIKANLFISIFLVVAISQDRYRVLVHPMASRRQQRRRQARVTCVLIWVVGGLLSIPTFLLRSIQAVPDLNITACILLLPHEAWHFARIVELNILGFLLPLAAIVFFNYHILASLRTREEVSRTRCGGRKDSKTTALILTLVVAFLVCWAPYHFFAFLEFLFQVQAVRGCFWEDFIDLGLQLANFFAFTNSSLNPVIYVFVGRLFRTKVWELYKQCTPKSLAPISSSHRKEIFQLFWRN

[2] = Clearance in iv dosed rat; type: ADME, organism-based; settings: in vivo
[3] = Oral bioavailability in rat; type: ADME, organism-based; settings: in vivo

## COC(=O)c1ccccc1-c1ccc(CNc2ncccc2NC(=O)CC(F)(F)F)cc1
[1]
  half-life: 0.15 h
B2 bradykinin receptor
  Ki: > 10 µM

## COC(=O)c1ccccc1-c1ccc(CNC(=O)C2(NC(=O)c3cncc(C(F)(F)F)c3)CC2)cc1
B1 bradykinin receptor
  Ki: 0.0018 µM
B2 bradykinin receptor
  Ki: > 10 µM

## COC(=O)c1ccccc1-c1ccc(CNC(=O)C2(NC(=O)CC(F)(F)F)CCCCC2)cc1
B1 bradykinin receptor
  Ki: 0.752 µM
[2]
  clearance: 2.6 mL/min/kg
[1]
  half-life: 12 h
[3]
  bioavailability: 25%
B2 bradykinin receptor
  Ki: > 10 µM

## COC(=O)c1ccccc1-c1ccc(CNC(=O)C2(NC(=O)CC(F)(F)F)CCCC2)cc1
B1 bradykinin receptor
  Ki: 0.462 µM
B2 bradykinin receptor
  Ki: > 10 µM

## COC(=O)c1ccccc1-c1ccc(CNC(=O)[C@@H](C)NC(=O)CC(F)(F)F)cc1
B1 bradykinin receptor
  Ki: 1.58 µM
B2 bradykinin receptor
  Ki: > 10 µM

## COC(=O)c1ccccc1-c1ccc(CNC(=O)C(C)(C)NC(=O)CC(F)(F)F)cc1
[2]
  clearance: 4.2 mL/min/kg
[1]
  half-life: 6.6 h
[3]
  bioavailability: 35%
B2 bradykinin receptor
  Ki: > 10 µM

## COC(=O)c1ccccc1-c1ccc(CNC(=O)C2(NC(=O)CC(F)(F)F)CC2)cc1
[2]
  clearance: 9.3 mL/min/kg
[1]
  half-life: 9.5 h
[3]
  bioavailability: 26%
B2 bradykinin receptor
  Ki: > 10 µM

## COC(=O)c1ccccc1-c1ccc(CNC(=O)C2(NC(=O)c3cncnc3)CC2)cc1
B1 bradykinin receptor
  Ki: 0.0255 µM
B2 bradykinin receptor
  Ki: > 10 µM

## COC(=O)c1ccccc1-c1ccc(CNC(=O)CNC(=O)CC(F)(F)F)cc1
B1 bradykinin receptor
  Ki: 52 µM
B2 bradykinin receptor
  Ki: > 10 µM

## COC(=O)c1ccccc1-c1ccc(CNC(=O)C2(NC(=O)CC(F)(F)F)CCC2)cc1
B1 bradykinin receptor
  Ki: 0.119 µM
B2 bradykinin receptor
  Ki: > 10 µM

## COC(=O)c1ccccc1-c1ccc(CNC(=O)[C@H](C)NC(=O)CC(F)(F)F)cc1
B1 bradykinin receptor
  Ki: > 50 µM
B2 bradykinin receptor
  Ki: > 10 µM
